Laboratory results: PubChem BioAssay (NCI)
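Each compound was tested at five concentrations against cells in 96-well plates for 48 hours. TGI marks complete inhibition of growth.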

Columns and labels:
Assay in all cases: NCI anticancer screen, dose series, 48 h
[1] = test system: 786-0 renal
[2] = test system: A549 NSCLC
[3] = test system: ACHN renal
[4] = test system: CAKI-1 renal
[5] = test system: CCRF-CEM leukemia
[6] = test system: COLO 205 colon
[7] = test system: DLD-1 colon
[8] = test system: DMS 114 small cell lung
[9] = test system: DMS 273 small cell lung
[10] = test system: EKVX NSCLC
[11] = test system: HCC-2998 colon
[12] = test system: HCT-116 colon
[13] = test system: HCT-15 colon
[14] = test system: HL-60(TB) leukemia
[15] = test system: HOP-62 NSCLC
[16] = test system: HOP-92 NSCLC
[17] = test system: HT29 colon
[18] = test system: IGROV1 ovarian
[19] = test system: K-562 leukemia
[20] = test system: KM12 colon
[21] = test system: KM20L2 colon
[22] = test system: LOX IMVI melanoma
[23] = test system: LXFL 529 NSCLC
[24] = test system: M19-MEL melanoma
[25] = test system: MALME-3M melanoma
[26] = test system: MOLT-4 leukemia
[27] = test system: NCI-H226 lung
[28] = test system: NCI-H23 lung
[29] = test system: NCI-H460 lung
[30] = test system: NCI-H522 lung
[31] = test system: OVCAR-3 ovarian
[32] = test system: OVCAR-5 ovarian
[33] = test system: OVCAR-8 ovarian
[34] = test system: RPMI-8226 leukemia
[35] = test system: RXF 393 renal
[36] = test system: RXF-631 renal
[37] = test system: SF-268 CNS
[38] = test system: SF-295 CNS
[39] = test system: SF-539 CNS
[40] = test system: SK-MEL-2 melanoma
[41] = test system: SK-MEL-28 melanoma
[42] = test system: SK-MEL-5 melanoma
[43] = test system: SK-OV-3 ovarian
[44] = test system: SN12C renal
[45] = test system: SNB-19 CNS
[46] = test system: SR leukemia
[47] = test system: SW-620 colon
[48] = test system: TK-10 renal
[49] = test system: U251 CNS
[50] = test system: UACC-257 melanoma
[51] = test system: UACC-62 melanoma
[52] = test system: XF 498 CNS
[53] = test system: HOP-18 NSCLC
[54] = test system: M14 melanoma
[55] = test system: OVCAR-4 ovarian
[56] = test system: SNB-75 CNS
[57] = test system: SNB-78 CNS
[58] = test system: UO-31 renal
[59] = test system: A498 renal

SMILES: C/C=C1\CN2CCc3c([nH]c4ccccc34)C2C=C1CCO (stereo not drawn)
- TGI [1]: > 340 µM
- TGI [2]: > 340 µM
- TGI [3]: > 340 µM
- TGI [4]: > 340 µM
- TGI [5]: > 340 µM
- TGI [6]: > 340 µM
- TGI [7]: > 340 µM
- TGI [8]: > 340 µM
- TGI [9]: > 340 µM
- TGI [10]: > 340 µM
- TGI [11]: > 340 µM
- TGI [12]: > 340 µM
- TGI [13]: > 340 µM
- TGI [14]: > 340 µM
- TGI [15]: > 340 µM
- TGI [16]: > 340 µM
- TGI [17]: > 340 µM
- TGI [18]: > 340 µM
- TGI [19]: > 340 µM
- TGI [20]: > 340 µM
- TGI [21]: > 340 µM
- TGI [22]: > 340 µM
- TGI [23]: > 340 µM
- TGI [24]: > 340 µM
- TGI [25]: > 340 µM
- TGI [26]: > 340 µM
- TGI [27]: > 340 µM
- TGI [28]: > 340 µM
- TGI [29]: > 340 µM
- TGI [30]: > 340 µM
- TGI [31]: > 340 µM
- TGI [32]: > 340 µM
- TGI [33]: > 340 µM
- TGI [34]: > 340 µM
- TGI [35]: > 340 µM
- TGI [36]: > 340 µM
- TGI [37]: > 340 µM
- TGI [38]: > 340 µM
- TGI [39]: > 340 µM
- TGI [40]: > 340 µM
- TGI [41]: > 340 µM
- TGI [42]: > 340 µM
- TGI [43]: > 340 µM
- TGI [44]: > 340 µM
- TGI [45]: > 340 µM
- TGI [46]: > 340 µM
- TGI [47]: > 340 µM
- TGI [48]: > 340 µM
- TGI [49]: > 340 µM
- TGI [50]: > 340 µM
- TGI [51]: > 340 µM
- TGI [52]: > 340 µM

SMILES: C=C(C(=C)N1N=NC2C3CCC(C3)C21)N1N=NC2C3CCC(C3)C21 (stereo not drawn)
- TGI [1]: > 100 µM
- TGI [2]: > 100 µM
- TGI [3]: > 100 µM
- TGI [4]: > 100 µM
- TGI [5]: > 100 µM
- TGI [6]: > 100 µM
- TGI [7]: > 100 µM
- TGI [8]: > 100 µM
- TGI [9]: > 100 µM
- TGI [11]: > 100 µM
- TGI [12]: > 100 µM
- TGI [14]: 54.6 µM
- TGI [53]: > 100 µM
- TGI [15]: > 100 µM
- TGI [16]: > 100 µM
- TGI [17]: > 100 µM
- TGI [18]: > 100 µM
- TGI [19]: > 100 µM
- TGI [20]: > 100 µM
- TGI [22]: > 100 µM
- TGI [23]: > 100 µM
- TGI [54]: > 100 µM
- TGI [24]: > 100 µM
- TGI [25]: > 100 µM
- TGI [26]: > 100 µM
- TGI [28]: > 100 µM
- TGI [29]: > 100 µM
- TGI [30]: > 100 µM
- TGI [31]: > 100 µM
- TGI [55]: > 100 µM
- TGI [32]: > 100 µM
- TGI [33]: > 100 µM
- TGI [35]: > 100 µM
- TGI [36]: > 100 µM
- TGI [37]: > 100 µM
- TGI [38]: > 100 µM
- TGI [39]: > 100 µM
- TGI [41]: > 100 µM
- TGI [42]: > 100 µM
- TGI [44]: > 100 µM
- TGI [45]: > 100 µM
- TGI [56]: > 100 µM
- TGI [57]: > 100 µM
- TGI [46]: > 100 µM
- TGI [47]: > 100 µM
- TGI [48]: > 100 µM
- TGI [49]: > 100 µM
- TGI [50]: > 100 µM
- TGI [51]: > 100 µM
- TGI [58]: > 100 µM
- TGI [52]: > 100 µM

SMILES: CCCCNC(=O)C1C2CCC(O2)C1C(=O)O (stereo not drawn)
- TGI [1]: 31.5 µM
- TGI [59]: 32.4 µM
- TGI [2]: > 100 µM
- TGI [3]: 57.7 µM
- TGI [6]: 32.5 µM
- TGI [7]: 49.4 µM
- TGI [8]: 28.2 µM
- TGI [9]: > 100 µM
- TGI [10]: 65.6 µM
- TGI [11]: 46.6 µM
- TGI [12]: 25.2 µM
- TGI [13]: 70.3 µM
- TGI [53]: 90.9 µM
- TGI [15]: > 100 µM
- TGI [16]: 39 µM
- TGI [17]: 55.4 µM
- TGI [18]: > 100 µM
- TGI [20]: > 100 µM
- TGI [21]: 27.4 µM
- TGI [22]: 34.7 µM
- TGI [23]: 34.6 µM
- TGI [54]: 29.5 µM
- TGI [24]: 41.4 µM
- TGI [25]: 43.7 µM
- TGI [26]: 40.4 µM
- TGI [27]: 35.3 µM
- TGI [28]: > 100 µM
- TGI [29]: > 100 µM
- TGI [30]: 41.8 µM
- TGI [31]: 31.5 µM
- TGI [55]: > 100 µM
- TGI [32]: > 100 µM
- TGI [33]: 43.3 µM
- TGI [34]: 42 µM
- TGI [35]: 8.44 µM
- TGI [36]: > 100 µM
- TGI [37]: 45.1 µM
- TGI [38]: 74.7 µM
- TGI [39]: 39.6 µM
- TGI [40]: 54.8 µM
- TGI [41]: 76.1 µM
- TGI [42]: 45.8 µM
- TGI [43]: 53.7 µM
- TGI [44]: 30.9 µM
- TGI [45]: 58.7 µM
- TGI [56]: 52.1 µM
- TGI [57]: > 100 µM
- TGI [46]: 95.4 µM
- TGI [47]: 10.6 µM
- TGI [48]: 42.5 µM
- TGI [49]: 29 µM
- TGI [50]: 45.7 µM
- TGI [51]: 43.4 µM
- TGI [58]: > 100 µM
- TGI [52]: 19.2 µM
